Data set [1] in a line: in vivo. To be noted: ICR, mouse, iv, 5 mg/kg.
Data set [2] in a line: in vivo. Conditions: ICR, mouse, po, 15 mg/kg.
Data set [3] in a line: in vivo. Conditions: ICR, mouse, po, 15 mg/kg. This is another data set of the same source.
Data set [4] in a line: in vivo. To be noted: ICR, mouse, iv, 5 mg/kg. This is another data set of the same source.
Data set [5] in a line: in vivo. Conditions: ICR, mouse, po, 15 mg/kg. The source holds these as a separate data set.
A short description of data set [6]: in vivo. Conditions: ICR, mouse, po, 15 mg/kg. The source holds these as a separate data set.
The nature of data set [7]: in vivo. Conditions: ICR, mouse, po, 15 mg/kg. The source holds these as a separate data set.
The nature of data set [8]: in vivo. Conditions: ICR, mouse, iv, 5 mg/kg. This is another data set of the same source.
Data set [9] is described as follows: in vivo. Conditions: ICR, mouse, iv, 5 mg/kg. The source holds these as a separate data set.
Data set [10] in a line: in vivo. To be noted: ICR, mouse, iv, 5 mg/kg. This is another data set of the same source.
Data set [11] is described as follows: in vivo. To be noted: ICR, mouse, iv, 5 mg/kg. The source holds these as a separate data set.

The term Cmax denotes the peak of the concentration-time curve. As a reminder, the half-life is how long it takes for the measured level to halve. A low value points to fast loss. For orientation: Vd means a proportionality between amount in the body and measured concentration, not a real space. What is called AUC(0-t) is the area under the concentration-time curve up to a stated or last time point. As usually defined, the Tmax is the time at which the peak concentration occurs. Broadly, the bioavailability is dose-corrected exposure relative to a reference, in per cent. A low value points to little systemic uptake. In general, clearance refers to the volume of plasma or blood freed of the substance per unit of time. Low values mean inefficient removal, high ones efficient removal. For the compound `COc1cc(-c2n[nH]c3ncc(-c4ccc(C)c(NCCO)c4)cc23)cc(OC)c1OC`, the peak concentration (Cmax) at 24 h is 3850 ng/mL in data set [1] and 115 ng/mL in data set [3]. Moreover, the results for the half-life at 24 h in data set [2] and in [9] were 72 min and 78 min, respectively. This compound also yielded a Vd at 24 h in data set [4] of 1.3 L/kg. Also, the AUC(0-t) at 24 h in data set [5] turned out to be 110 ng·h/mL; in [11], 1150 ng·h/mL. Moreover, the Tmax at 24 h in data set [6] came out at 18 min; in data set [8], 6 min. Also, the bioavailability at 24 h in data set [7] was 3.2%. The same compound had a clearance at 24 h in [10] of 73.3 mL/min/kg.

Values taken from ChEMBL document CHEMBL5625216, “Design, synthesis, and biological evaluation of 3, 5-disubsituted-1H-pyrazolo[3,4-b]pyridines as multiacting inhibitors against microtubule and kinases” (Eur J Med Chem, 2023).
